# Measurements published in US20250161245A1, “A MIXTURE OF UREA, BIURET AND N-CONTAINING BY-PRODUCTS CREATED DURING BIURET PRODUCTION AS A DIETARY NON-PROTEIN NITROGEN-SOURCE FOR RUMINANTS AND USES THEREOF” (Yara International ASA, priority 2022, published 2025).
# Tested on: ruminal fluid
# Assay: in vitro dry and organic matter digestibility, batch culture (Example 4)
# Type: cell-based, Angus crossbred steers
# Conditions: 24 hours of incubation, corn silage-based diet
# Method: The in vitro incubations were conducted on three separate days (replicates). A representative sample of digesta was collected from different places in the rumen of ruminally cannulated steers and strained through 4 layers of cheesecloth, placed in pre-warmed thermos containers, and transported to the laboratory within 30 minutes after the collection. In the laboratory, the ruminal fluid from the two steers was maintained under constant CO2-flux and was combined in equal proportions. This combined ruminal fluid was mixed with McDougall's buffer (McDougall, 1948) with and without 0.077 g/liter of 10 wt. % ammonium sulfate enriched with ^15N in relation 1:4, and it was used as an inoculum. Two bottles of 500 ml fitted with a side arm and a rubber septum were incubated per treatment. […] At the end of the 24 hours incubation, the final pH was recorded, the bottles were placed on ice to prevent further microbial fermentation and two 10-ml samples were collected and acidified by adding 20 μl of a 20 vol/vol % of H2SO4-solution and were frozen at minus 20° C. until further analysis. […]
# The concentration of ammonia-N at 12 and 24 hours in the incubation fluid was measured after centrifuging at 10,000×g for 15 minutes at 4° C. using an Avanti J-E centrifuge from Beckman Coulter® Incorporated. […]
compound,measurement,value
"NC(N)=O [Urea, urea]",IVDMD,45.08%
same,IVOMD,65.38%
